Patent US7919673B2, “Transgenic pig with altered incretin function” (Ludwig-Maximilians-Universitat, priority 2008, dated 2011)
“Also recorded” adds a separate entry of the source.

Legend:
[1] = system: GIPR^dn transgenic (tg) and control (wt) pigs; experiment: GIP/Exendin-4 stimulation test in 7-months-old (28-36 weeks) pigs; assay type: in vivo, pig; settings: 28- to 36-week-old; for insulin secretion compared to glucose administration alone: 10 pmol/kg BW Exendin-4 i.v. 3 min after i.v. glucose, p<0.05
Excerpt: (§1) For the oral glucose tolerance test (OGTT), one central venous catheter (Cavafix® Certo®, B. Braun, Melsungen, Germany) was inserted non-surgically into the external jugular vein under general anesthesia according to the manufacturer's instructions. For accomplishment of the GIP/Exendin-4 stimulation test as well as the intravenous glucose tolerance test, two central venous catheters (Cavafix® Certo®, B. Braun) were surgically inserted into the external jugular vein under general anesthesia using a modified method of Moritz et al. (24). At the start of the study period, all animals had fully recovered from the surgical procedure as evaluated by normal behavior and food intake.
(§2) The OGTT was performed in 11-week old and 5-month-old non-restrained, freely moving animals. After an 18-h overnight fast, animals were fed 2 g/kg BW glucose (25) mixed with 100 g of commercial pig fodder (Deuka primo care in 11-week-old pigs; Deuka porfina U in 5-month-old pigs; Deuka, Düsseldorf, Germany). The meal was eaten from a bowl under supervision. Blood samples were obtained from the jugular vein catheter at −10, 0, 15, 30, 45, 60, 90 and 120 minutes relative to the glucose load in 11-week-old pigs and at −15, −5, 0, 15, 30, 45, 60, 90, 120, 150 and 180 minutes relative to the glucose load in 5-month-old pigs. Serum glucose levels were determined using an AU 400 autoanalyzer (Olympus, Hamburg, Germany) while serum insulin levels were measured in duplicate using a porcine insulin radioimmunoassay (RIA) kit (Millipore, Billerica, USA) according to the manufacturer's instructions.
(§3) The GIP/Exendin-4 stimulation test was performed in 10- to 13-week old and 7-months-old (28-36 weeks) non-restrained freely moving animals. In 7-months-old animals, 0.5 g glucose/kg BW were administered intravenously as a bolus of concentrated 50% glucose solution following an 18-hour fasting period (26). After three minutes 20 pmol/kg BW of synthetic porcine GIP (Bachem, Weil am Rhein, Germany) or 10 pmol/kg BW of synthetic Exendin-4 (Bachem) were administered intravenously. Blood samples were collected −15, 0, 1, 3, 6, 9, 11, 13, 18, 23, 28, 33, 48 and 60 minutes relative to the glucose load. In 10- to 13-week-old animals, 0.5 g glucose/kg BW were administered intravenously as a bolus of concentrated 50% glucose solution following an 18-hour fasting period (26). Right after glucose administration 80 pmol/kg BW of synthetic porcine GIP (Bachem, Weil am Rhein, Germany) or 40 pmol/kg BW of synthetic Exendin-4 (Bachem) were administered intravenously. […]
(§4) All data are presented as means±SEM. […] Data from the GIP/Exendin-4 stimulation tests in 10- to 13-week-old animals as well as from proliferation index (Ki67 immunohistochemistry) were analyzed using ANOVA (analysis of variance) (SAS). […]

[2] = system: GIPR^dn transgenic (tg) and control (wt) pigs; experiment: GIP/Exendin-4 stimulation test in 10- to 13-week-old pigs; assay type: in vivo, pig; settings: for insulinotropic effect in GIPR^dn transgenic pigs compared to controls: 10- to 13-week-old (eleven-week-old) pigs, intravenously administrated with glucose
Excerpt: as §1, §2, §3, §4

Substance | insulin secretion compared to glucose administration alone ([1]; GIPR^dn transgenic pigs) | insulin secretion compared to glucose administration alone ([1]; control pigs) | insulinotropic effect in GIPR^dn transgenic pigs compared to controls [2] | insulin secretion in GIPR^dn transgenic pigs compared to controls ([2]; 10- to 13-week-old pigs, 40 pmol/kg BW Exendin-4 i.v. together with 0.5 g/kg i.v. glucose, p<0.01) | increase in glucose-induced insulin concentration (Δ insulin) ([1]; GIPR^dn transgenic pigs, 20 pmol/kg BW GIP i.v. 3 min after 0.5 g/kg i.v. glucose, glucose alone 7 μU/ml) | increase in i.v. glucose-induced serum insulin concentration (Δ insulin) ([1]; control (wt) pigs, 20 pmol/kg BW GIP i.v. 3 min after 0.5 g/kg i.v. glucose, glucose alone 27 μU/ml) | serum insulin levels in control pigs compared to GIPR^dn transgenic pigs ([2]; 10- to 13-week-old pigs, 80 pmol/kg BW GIP i.v. together with 0.5 g/kg i.v. glucose)
Exendin-4 | significant stimulation; also recorded: significant increase | significant increase | enhanced | increased insulin secretion; also recorded: significantly higher increase |  |  | 
glucose-dependent insulinotropic polypeptide [GIP] |  |  | blunted; also recorded: impaired |  | 11 μU/ml | 58 μU/ml | significantly (p<0.01) higher insulin levels
